From the NIST ThermoML archive (doi:10.1021/je900789j)

Details: 101.33 kPa, Liquid; for electrical conductivity: Alternating current cell with electrodes; for mass density: Vibrating tube method

CCCCn1cc[n+](C)c1.F[B-](F)(F)F [1-butyl-3-methylimidazolium tetrafluoroborate]
Details | electrical conductivity [S/m] | mass density [kg/m3]
238.05 K | 0.00212 | –
248.05 K | 0.00778 | –
258.05 K | 0.0225 | –
268.1 K | 0.0542 | –
278.1 K | 0.1132 | 1215.43
288.15 K | 0.211 | 1209.33
298.15 K | 0.352 | 1202.08
308.15 K | 0.556 | 1194.78
318.15 K | 0.821 | 1187.79
328.15 K | 1.15 | 1180.62
338.15 K | 1.545 | 1173.51
348.15 K | 2 | –
358.15 K | 2.52 | –
368.15 K | 3.1 | –
378.15 K | 3.73 | –
388.15 K | 4.41 | –
398.15 K | 5.13 | –
408.15 K | 5.88 | –
418.15 K | 6.64 | –
428.15 K | 7.45 | –
438.15 K | 8.29 | –
448.15 K | 9.15 | –
458.15 K | 10.04 | –
468.15 K | 10.9 | –

CCCCCCCC[n+]1ccn(C)c1.F[B-](F)(F)F [1-methyl-3-octylimidazolium tetrafluoroborate]
Details | electrical conductivity [S/m] | mass density [kg/m3]
238.05 K | 0.0001524 | –
248.05 K | 0.00065 | –
258.05 K | 0.00218 | –
268.1 K | 0.00605 | –
278.1 K | 0.01441 | 1116.79
288.15 K | 0.0304 | 1110.36
298.15 K | 0.0579 | 1103.6
308.15 K | 0.1012 | 1096.82
318.15 K | 0.1647 | 1090.04
328.15 K | 0.252 | 1083.22
338.15 K | 0.368 | 1076.46
348.15 K | 0.512 | –
358.15 K | 0.688 | –
368.15 K | 0.895 | –
378.15 K | 1.134 | –
388.15 K | 1.403 | –
398.15 K | 1.701 | –
408.15 K | 2.03 | –
418.15 K | 2.38 | –
428.15 K | 2.75 | –
438.15 K | 3.15 | –
448.15 K | 3.56 | –
458.15 K | 3.99 | –
468.15 K | 4.44 | –

CCCCCCn1cc[n+](C)c1.F[B-](F)(F)F [1-hexyl-3-methylimidazolium tetrafluoroborate]
Details | electrical conductivity [S/m] | mass density [kg/m3]
238.05 K | 0.000405 | –
248.05 K | 0.00169 | –
258.05 K | 0.00544 | –
268.1 K | 0.0145 | –
278.1 K | 0.0332 | 1159.81
288.15 K | 0.0672 | 1153.14
298.15 K | 0.1229 | 1146.18
308.15 K | 0.207 | 1139.15
318.15 K | 0.326 | 1132.31
328.15 K | 0.483 | 1125.18
338.15 K | 0.683 | 1118.54
348.15 K | 0.926 | –
358.15 K | 1.214 | –
368.15 K | 1.545 | –
378.15 K | 1.92 | –
388.15 K | 2.33 | –
398.15 K | 2.78 | –
408.15 K | 3.26 | –
418.15 K | 3.77 | –
428.15 K | 4.31 | –
438.15 K | 4.88 | –
448.15 K | 5.46 | –
458.15 K | 6.07 | –
468.15 K | 6.69 | –

CCn1cc[n+](C)c1.F[B-](F)(F)F [1-ethyl-3-methylimidazolium tetrafluoroborate]
Details | electrical conductivity [S/m] | mass density [kg/m3]
248.05 K | 0.106 | –
258.05 K | 0.228 | –
268.1 K | 0.423 | –
278.1 K | 0.703 | 1293.75
288.15 K | 1.08 | 1288.03
298.15 K | 1.546 | 1280.07
308.15 K | 2.11 | 1272.48
318.15 K | 2.77 | 1265.12
328.15 K | 3.51 | 1256.89
338.15 K | 4.34 | 1250.24
348.15 K | 5.23 | –
358.15 K | 6.2 | –
368.15 K | 7.22 | –
378.15 K | 8.29 | –
388.15 K | 9.41 | –
398.15 K | 10.6 | –
408.15 K | 11.8 | –
418.15 K | 13 | –
428.15 K | 14.22 | –
438.15 K | 15.48 | –
448.15 K | 16.8 | –
458.15 K | 18.03 | –
468.15 K | 19.3 | –
